Laboratory results as given in paper PMC10700596 (Nature Communications, 2023).
Where “and” joins values, the source holds several entries; their conditions need not be identical. Identical values can stand only once.

Experiments:
[1] = molecular target: T1, EP4R (Homo sapiens, UniProt P35408); assay: biochemical; format: binding
T1 construct: Tango fusion cassette (only 'tango' is printed); expressed in transfected cells; host or cells: HTLA cells (tTA-dependent luciferase reporter, β-arrestin2-TEV fusion)

[2] = molecular target: T1, EP4R; assay: PRESTO-Tango β-arrestin2 recruitment assay; format: cell-based
[3] = molecular target: wild-type EP4R (Homo sapiens, UniProt P35408); assay: cell-based
[4] = molecular target: T1, EP4R; assay: cell-based
[5] = molecular target: T2, prostaglandin D2 (PGD2) receptor (Homo sapiens, UniProt Q9Y5Y4); assay: Functional cAMP production assay, PGD2 receptor; format: cell-based; conditions: replicate values
T2 sequence (Q9Y5Y4 1-395): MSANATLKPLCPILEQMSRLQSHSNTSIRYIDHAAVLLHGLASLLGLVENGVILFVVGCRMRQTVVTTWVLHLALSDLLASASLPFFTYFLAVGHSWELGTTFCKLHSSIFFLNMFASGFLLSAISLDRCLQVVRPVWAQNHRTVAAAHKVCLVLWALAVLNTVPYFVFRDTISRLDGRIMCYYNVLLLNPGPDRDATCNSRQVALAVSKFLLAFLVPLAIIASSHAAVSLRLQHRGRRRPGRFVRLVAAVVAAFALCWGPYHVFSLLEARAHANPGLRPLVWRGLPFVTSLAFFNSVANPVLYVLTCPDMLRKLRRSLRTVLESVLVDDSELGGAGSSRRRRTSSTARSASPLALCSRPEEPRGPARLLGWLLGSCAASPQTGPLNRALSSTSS

[6] = molecular target: T3, EP4R R316A mutant (Homo sapiens, UniProt P35408, R316A); assay: BRET EP4R-arrestin interaction reporter assay, R316A mutant; format: cell-based; conditions: agonist mode
T3 construct: expressed in transfected cells; host or cells: HEK cells, transient
Text: three independent experiments. Source data are provided as a Source Data file.
(1 picture or pasted object on this page, not shown here)

wild-type EP4R, sequence (P35408 whole entry): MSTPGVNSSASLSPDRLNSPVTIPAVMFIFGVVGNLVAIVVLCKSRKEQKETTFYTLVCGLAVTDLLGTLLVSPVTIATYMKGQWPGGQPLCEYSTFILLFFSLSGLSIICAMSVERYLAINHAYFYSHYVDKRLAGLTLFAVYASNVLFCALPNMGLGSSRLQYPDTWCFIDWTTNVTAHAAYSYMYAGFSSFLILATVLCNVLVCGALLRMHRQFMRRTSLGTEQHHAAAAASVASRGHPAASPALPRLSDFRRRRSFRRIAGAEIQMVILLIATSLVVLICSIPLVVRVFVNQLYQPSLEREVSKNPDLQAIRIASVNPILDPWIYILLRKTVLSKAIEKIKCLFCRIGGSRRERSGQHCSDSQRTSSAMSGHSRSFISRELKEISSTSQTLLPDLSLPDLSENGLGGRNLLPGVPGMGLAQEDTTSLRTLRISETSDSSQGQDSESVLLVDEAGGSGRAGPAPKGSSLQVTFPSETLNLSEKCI
T1 sequence (P35408 whole entry, the tested form may be a part): as the sequence (P35408 whole entry) above
T3 sequence (P35408 whole entry R316A): as the sequence (P35408 whole entry) above, with R316A counted along it

Cc1cc(C(=O)N[C@H]2CC[C@H](C(=O)O)CCC2(F)F)c(C)n1-c1ccccc1 [Compound 83, CC1=CC(C(=O)N[C@H]2CC[C@@H](CCC2(F)F)C(=O)O)=C(C)N1C=3C=CC=CC3]
Ki [1]: > 10 µM
PRESTO-Tango -logIC50 [2]: unstable
IC50 ([2]; PRESTO-Tango IC50 (nM)): > 10000 nM
IC50 [3]: 3.39 µM
Ki [3]: 0.678 µM
Kb [4]: > 10 µM

CCCCC[C@H](O)/C=C/[C@H]1C(=O)C[C@H](O)[C@@H]1C/C=C\CCCC(=O)O [PGD2]
Prostaglandin D2 receptor response, drug alone ([5]; Log[Drug] -7): 0.6033 and 0.644 and 0.6961 and 0.6919
Prostaglandin D2 receptor response, drug alone ([5]; Log[Drug] -7.52): 0.797 and 0.93 and 0.9088 and 0.9243 and 0.8431 and 0.8125 and 0.8754 and 0.8197 and 0.9698 and 0.7088 and 0.7525 and 0.7962
Prostaglandin D2 receptor response, drug alone ([5]; Log[Drug] -8): 0.9354 and 1 and 1.006 and 1.122 and 0.9207 and 0.9404 and 0.8901 and 0.9489 and 0.8787 and 1.018 and 0.7261 and 1.1394
Prostaglandin D2 receptor response, drug alone ([5]; Log[Drug] -8.52): 0.9328 and 0.9897 and 1.022 and 0.9062 and 0.7756 and 1.181 and 0.8387 and 1.0826 and 1.099 and 1.025 and 0.9559 and 0.8192
Prostaglandin D2 receptor response, drug alone ([5]; Log[Drug] -9): 1.112 and 0.9671 and 1.1328 and 0.9787 and 1.031 and 1.15 and 0.9594 and 0.9527 and 0.952 and 0.9619 and 1.007 and 0.8917
Prostaglandin D2 receptor response, drug alone ([5]; Log[Drug] -9.52): 0.8441 and 1.142 and 1.077 and 0.9738 and 0.9345 and 0.9535 and 0.9143 and 1.094 and 0.8709 and 1.005 and 0.9652 and 0.9465
Prostaglandin D2 receptor response, drug alone ([5]; Log[Drug] -10): 1.003 (2×) and 1.01 (2×) and 1.029 and 0.9872 and 0.9954 and 1.0644 and 0.8654 and 0.9098 and 1.022 and 1.061
Prostaglandin D2 receptor response, drug alone ([5]; Log[Drug] -10.52): 0.9812 and 1.108 and 1.015 and 0.9787 and 0.8969 and 1.051 and 1.01 and 0.8703 and 1.02 and 1.075 and 0.9632 and 0.9209
Prostaglandin D2 receptor response, drug alone ([5]; Log[Drug] -11): 0.9785 and 0.8795 and 0.9671 and 1.005 and 0.997 and 1.114 and 0.9736 and 1.021 and 1.027 and 1.076 and 1.172 and 1.01

CCCCC[C@H](O)/C=C/[C@H]1[C@H](O)CC(=O)[C@@H]1C/C=C\CCCC(=O)O [PGE2, prostaglandin E2, reference compound]
EC80 of PGE2 ([2]; agonist): 0.008 µM
EC80 of PGE2 [3]: 0.008 µM
activation of R316A mutant receptor [6]: no longer
